Results published in patent publication US20260226038A1, “NEW COMPOUNDS FOR TREATING STAPHYLOCOCCUS INFECTIONS” (AB2 THERAPEUTICS, S. L., priority 2023, published 2026).
≈ marks a conversion by molar mass, not a printed value.

Each compound was assayed on Staphylococcus aureus (assay: MIC test, microdilution method (CLSI)). Details: ATCC strains of Staphylococcus aureus; 18-20 h at 37° C.; growth inhibited ≥80% compared to growth control.
Assay type: cell-based
Description: Experimental Procedure: MIC Test. Microdilution Method To evaluate the antimicrobial activity of the compounds, ATCC strains of Staphylococcus aureus were used. The minimal inhibitory concentrations (MICs) of the compounds were determined by microdilution assays, according to CLSI methodology. 3 mg of compound were weighted in a 4 mL glass vials and were dissolved in properly volume of DMSO 100% (Reference: […]-50, Sigma) to reach 12.8 mg/mL (Cmax). In 96-well plates U-form (Reference: 650161, Greiner Bio-One): • Dispense 50 μL of the assayed compounds prepared in DMSO 100% at 12.8 mg/mL in each well in column 1. (8 different compounds per plate, row 1 to row 8) • Dispense 25 μL of DMSO 100% in all wells in columns 2 to 12. • With a multichannel pipette, aspire 25 μL of column 1 and dispense in column 2. Mix the contents in column 2 several times and aspire 25 μL. Dispense in column 3. • Repeat the process until column 10. In column 10, aspire 25 μL of the content and discard. In 96-well plates U-form: • With a multichannel pipette (in dispensing mode), aspire a properly volume (consider the number of copies of the mother plate do you want to perform) of all wells in mother plate, to dispense 1 μL/well in daughter plates. Tecan instrument (FREEDOM EVO 100) was used to make the mother and daughter plates. Bacterial suspension will be prepared and normalized to 0.5 McFarland turbidity standard (aprox. 10^8 CFU/mL) using a physiological saline solution (sodium chloride 0.9%). Then, prepared a 1/1000 dilution (aprox. 10^5 CFU/mL) of the suspension in appropriate media (CLSI Standard) and inoculate 99 μL in each well in daughter plates (only columns 1 to 11) using a MultidropTM Combi Reagent Dispenser. In column 12, only 99 μL of media will be dispense as a sterility control. The final plate map is (all values in μg/mL): Plates will be incubated 18-20 h at 37° C. MIC values will be considered as the concentration of compounds at which the growth will be inhibited=>≥80%, compared to growth control.
For COc1ccccc1N(CCO)C(=O)Cc1noc(CN2C(=O)C(=O)N(CC3CC3)C2=O)n1 [Example 1, 2-(5-((3-(Cyclopropylmethyl)-2,4,5-trioxoimidazolidin-1-yl)methyl)-1,2,4-oxadiazol-3-yl)-N-(2-hydroxyethyl)-N-(2-methoxyphenyl)acetamide], the MIC was 4 µg/mL (≈ 8.74 µM).
COc1ccccc1N(CCCO)C(=O)Cc1noc(CN2C(=O)C(=O)N(CC3CC3)C2=O)n1 [Example 4, 2-(5-((3-(cyclopropylmethyl)-2,4,5-trioxoimidazolidin-1-yl)methyl)-1,2,4-oxadiazol-3-yl)-N-(3-hydroxypropyl)-N-(2-methoxyphenyl)acetamide] gave an MIC of 16 µg/mL (≈ 33.9 µM).
COc1ccccc1N(CCOCCO)C(=O)Cc1noc(CN2C(=O)C(=O)N(CC3CC3)C2=O)n1 [Example 5, 2-(5-((3-(cyclopropylmethyl)-2,4,5-trioxoimidazolidin-1-yl)methyl)-1,2,4-oxadiazol-3-yl)-N-(2-(2-hydroxyethoxy)ethyl)-N-(2-methoxyphenyl)acetamide] was tested, and the MIC was 32 µg/mL (≈ 63.8 µM).
Compound CCN(C(=O)Cc1noc(CN2C(=O)C(=O)N(CC3CC3)C2=O)n1)c1ccccc1OC [Example 24, 2-(5-((3-(Cyclopropylmethyl)-2,4,5-trioxoimidazolidin-1-yl)methyl)-1,2,4-oxadiazol-3-yl)-N-ethyl-N-(2-methoxyphenyl)acetamide] has an MIC of 8 µg/mL (≈ 18.1 µM).
Compound COc1ccccc1N(C)C(=O)Cc1noc(CN2C(=O)C(=O)N(CC3CC3)C2=O)n1 [Example 26, 2-(5-((3-(Cyclopropylmethyl)-2,4,5-trioxoimidazolidin-1-yl)methyl)-1,2,4-oxadiazol-3-yl)-N-(2-methoxyphenyl)-N-methylacetamide] has an MIC of 4 µg/mL (≈ 9.36 µM).
COc1ccccc1NC(=O)Cc1noc(CN2C(=O)C(=O)N(CC3CC3)C2=O)n1 [Example 27, 2-(5-((3-(Cyclopropylmethyl)-2,4,5-trioxoimidazolidin-1-yl)methyl)-1,2,4-oxadiazol-3-yl)-N-(2-methoxyphenyl)acetamide] gave an MIC of 4 µg/mL (≈ 9.68 µM).
